Source: PMC12040169 (PLOS Biology, 2025)

assay: in vitro; details: human, hela cells, % viability

Structure (SMILES)	viability at 28.5 h, 10 µM
Cc1c(C#N)c2ccc(O)c(CN(C)C)c2n1-c1ccccc1 [CBK094247C]	98.2%
c1csc(CN2CCC[C@H]2c2nc(-c3ccc(-n4ccnc4)nc3)no2)c1 [CBK288895]	111%
COc1ccc(-c2c(C)nn(-c3ccc(Cl)nn3)c2C)c(C(=O)O)c1 [CBK005774]	107%
CNC(=O)NC(=O)CN1CCC(CNc2ncccc2C#N)C1 (stereo not drawn) [CBK306126]	77.4%
OCC1CCCN1c1cncc(-c2ccc(F)cc2F)n1 (stereo not drawn) [CBK065891]	112%
COc1cc2c(cc1CN1CCOCC1CC(=O)O)CCC2 (stereo not drawn) [CBK307277]	102%
O=C(Nc1ccc2n(c1=O)C[C@H]1C[C@@H]2CN(C(=O)Cc2cccs2)C1)c1ccco1 [CBK289204]	102%
CC[C@H]1C[N@@]2CC[C@H]1C[C@@H]2CNS(=O)(=O)c1cccc2cccnc12 [CBK288747]	90.6%
COc1ccc([C@@]23CC[C@@H](NC(=O)Nc4ccc5c(c4)OC(F)(F)O5)C[C@@H]2N(C)CC3)cc1OC [CBK073743T]	88.8%
CN1CCC(CN(C)CC2CCCN(Cc3ccccc3)C2)C1 (stereo not drawn) [CBK282946]	90.7%
CCc1nc2ccc(C(=O)Nc3ccc(Cl)c(Cl)c3)cn2c1N(C)Cc1ccc(OC)cc1 [CBK145585]	93.6%
O=[N+]([O-])c1ccccc1/C=C\C=N\n1c(S)nnc1-c1ccc(Cl)cc1Cl [CBK264405]	95%
CC1=C(C(=O)Nc2ccc(Cl)cc2Cl)SCCO1 [CBK057784]	96.5%
COc1ccc(C(N)C2(O)CCN(Cc3ccccc3)CC2)cc1 (stereo not drawn) [CBK091386]	107%
Cn1ccnc1SCC(=O)Nc1ccc(S(N)(=O)=O)cc1 [CBK263190]	84.6%
COC(=O)[C@@H](C)NC(=O)[C@@H]1CN(C(=O)NC(C)C)CCN1C(=O)c1cccs1 [CBK289624]	110%
CCCC(=O)N1CCC(c2nc3ccccn3c2NC(C)(C)C)CC1 [CBK284744]	81.9%
O=P(O)(CCc1ccncc1)CN1CCOCC1 [CBK262317]	89.3%
COCCc1noc(CC2CCN(c3ncncc3C#N)CC2)n1 [CBK304178]	90.5%
COc1ccccc1Nc1nc(N)nc(CN2CCc3ccccc3C2)n1 [CBK266635]	95.1%
Cc1ccc(-c2cn(S(=O)(=O)c3cccc4nsnc34)nc2N)cc1 [CBK268871]	113%
FC(F)(F)c1ccc(CN2CCN(c3nccnc3OCCN3CCOCC3)CC2)cc1 [CBK082890T]	90.8%
Nc1ncnc2c1[nH]c(=O)n2[C@H]1C[C@@H](O)[C@@H](CO)O1 [CBK201284]	98.3%

Structure (SMILES)	viability at 28.5 h, 10 µM
O=C(Nc1ccc(-c2cccc(F)c2)cc1)c1ccccc1Cn1cncn1 [CBK285565]	95.6%
O=C(Cc1c[nH]cn1)N1CCN(c2ncccn2)CC1 [CBK144527]	105%
O=C(NCCOc1ccccc1)N1CCN(c2ccccc2)CC1 [CBK155198]	88.5%
CCOC(=O)C1CSCCN1C(=O)c1ccc(-c2cnco2)cc1 (stereo not drawn) [CBK304208]	84.9%
CCN1CC2(CCCN(Cc3cncn3C3CCCCC3)C2)CCC1=O (stereo not drawn) [CBK307223]	98.1%
O=C(c1cc(F)c(F)cc1F)N1CCC2(CCN(C(=O)C3COc4ccccc4O3)C2)C1 (stereo not drawn) [CBK131390]	107%
COc1cc(CNC(C)(C)CO)c(Cl)cc1OC(C)C [CBK269542]	89.9%
Fc1ccc(-c2cncc(NCCCN3CCOCC3)n2)c(F)c1 [CBK065867]	91.3%
CC(C)NC(=O)c1cccc2c1CCCN2Cc1nc2ccccc2o1 [CBK295135]	101%
O=C(c1ccnc2ccccc12)N1CCc2ccccc21 [CBK200283]	103%
COc1ccc(N(CC(=O)Nc2cccnc2)S(=O)(=O)c2ccccc2)cc1 [CBK262236]	91.6%
Cc1cccn2cc(CCNC(=O)CN(C)C3CCSC3)nc12 (stereo not drawn) [CBK304027]	84.6%
O=S(=O)(Nc1nc(-c2sccc2Cl)cs1)c1cc(Br)c(Cl)s1 [CBK200030]	107%
NNC(=O)Nc1ccc(Cc2ccc(NC(=O)NN)cc2)cc1 [CBK262017]	88.5%
O=C(O)CSc1ccc(Cl)cc1 [CBK115571]	88.4%
OCc1nc2ccccc2n1CCCCOc1ccccc1Cl [CBK270117]	106%
O=C(O)CCCC(=O)Nc1ccccc1-c1nc2ccccc2[nH]c1=O [CBK280451]	85.9%
CN(C)CCN(Cc1ccncc1)Cc1ccc(F)cc1F [CBK283094]	98.2%
CCCc1cc(=O)[nH]c2nnc(SCC(=O)NC)n12 [CBK287685]	95.3%
O=C(CNS(=O)(=O)c1cccc(Cl)c1)Nc1ccc(-c2nc3ccccc3s2)cc1 [CBK267178]	97.5%
Cc1cnc2[nH]c(C3CCCN(C(=O)c4cnn(C)c4C)C3)cc2c1 (stereo not drawn) [CBK285171]	101%
CC(C)(C)NC(=O)COc1ccc(CNc2ccc(C(=O)O)c(Cl)c2)cc1 [CBK287230]	111%
O=C(O)c1nc(/N=C/c2ccc(C#Cc3ccccc3)cc2)n[nH]1 [CBK261219]	90.3%

Structure (SMILES)	viability at 28.5 h, 10 µM
CC(C)(C)N=C1c2nn(Cc3ccccc3)nc2C(=NC(C)(C)C)c2nn(Cc3ccccc3)nc21 [CBK261070]	103%
CC(=O)N(c1ccc2oc3c(c2c1)CCCC3)S(=O)(=O)c1ccc(C(=O)O)cc1 [CBK299808]	92.5%
Cc1c(F)cccc1CNCc1ccc(CNC(=O)OC(C)(C)C)cc1 [CBK056708]	103%
Cn1cc(CCCC(=O)NCCC2=CCCCC2)c2ccccc21 [CBK061756]	99.2%
CC(=O)NCCSc1cc(NC(C)C)ncn1 [CBK105293]	96.8%
Cc1nc(C2CCN(C(=O)c3cscn3)CC2)c2sccn12 [CBK285240]	107%
O=c1c(I)coc2ccc(Cl)cc12 [CBK005364]	93.9%
CC(=O)N1CCN(Cc2oc(C)cc(=O)c2O)CC1 [CBK288383]	91.6%
O=C(CSc1nnnn1C1CC1)c1cc2ccccc2o1 [CBK297158]	90.7%
COc1ccc2sc(Br)c(C(=O)O)c2c1 [CBK019180]	103%
CC1CC(C)CN(C(=O)NCCCCCC(=O)O)C1 (stereo not drawn) [CBK286793]	89%
O=C(CSC1c2ccccc2Oc2ccccc21)Nc1ccccc1C(=O)O [CBK266499]	98.4%
CCCCCOc1ccc(-c2ccc(Cl)nn2)cc1 [CBK007044]	83.7%
CC(=O)Nc1ccc(-c2cc(Nc3cccc(N(C)C)c3)ncn2)cc1 [CBK091017]	83.7%
O=C(O)c1ccc2c(c1)C(=O)N(c1ccc(C3(c4ccc(N5C(=O)c6ccc(C(=O)O)cc6C5=O)cc4)c4ccccc4-c4ccccc43)cc1)C2=O [CBK261195]	92.2%
CN(C)CC(=O)NC(Cc1ccsc1)c1nccs1 (stereo not drawn) [CBK284801]	91.4%
Cn1ncc2c(NCCN3CCOC3=O)nc(C(C)(C)C)nc21 [CBK307511]	75.3%
Cn1nccc1C(=O)C1CCN(C(=O)c2ccccc2F)CC1 [CBK284425]	94.5%
COCCN(Cc1cnn(C)c1)C(=O)Cc1ccccn1 [CBK306576]	112%
OCc1c(-c2ccc(F)cc2)[nH]c2ncccc12 [CBK283328]	86.5%
NCCc1nc(-c2ccccc2)c2cnccn12 [CBK035705]	101%
O=S(=O)(Cc1ccc(Cl)cc1)NCCCn1ccnc1 [CBK268372]	106%
COc1ncc(-c2cncc(NCc3cccc(Cl)c3)n2)c(OC)n1 [CBK065211]	106%

Structure (SMILES)	viability at 28.5 h, 10 µM
Cc1ccc(NC(=O)C2CC(=O)Nc3nc4ccccc4n32)cc1 (stereo not drawn) [CBK288134]	113%
Cc1ccc(S(=O)(=O)NCCOc2ccc(Cl)cc2)cc1[N+](=O)[O-] [CBK263268]	106%
Nc1nc(/C=C/c2cccs2)nc(-c2ccccc2O)n1 [CBK270033]	105%
COCC(=O)N[C@H]1C[C@H]2C(=O)Nc3ccc(-c4cccs4)cc3C(=O)N2C1 [CBK289358]	110%
O=C1CC[C@@H](NCc2cccs2)[C@H](c2cc(F)cc(F)c2)N1 [CBK283129]	95.5%
CC(=O)N1CCc2ccc(NC(=O)c3cncc(-c4ccc(C(=O)N5CCOCC5)cc4)c3)cc21 [CBK160217]	77.8%
CN(Cc1nc(-c2ccccc2)no1)C(=O)COCC1CCCCO1 (stereo not drawn) [CBK307643]	106%
FC(F)(F)c1cccnc1Sc1nc[nH]n1 [CBK115213]	102%
COCc1nc2n(n1)CC(NC1CCCc3sccc31)CC2 (stereo not drawn) [CBK305116]	90.1%
O=C(NCc1ccccc1)c1ccccc1NS(=O)(=O)c1ccccc1F [CBK113881]	106%
CC(C)(CC(=O)O)CC(=O)Nc1ccc(Cl)c(Cl)c1 [CBK086500]	92.6%
COc1ccccc1CC(=N)NOC(=O)COc1cccc2ccccc12 [CBK263012]	94.2%
CCCC/C=C/c1nccnc1NCc1ccco1 [CBK037116]	105%
O=C(NC1CC1)[C@H]1CN2CCC1C[C@@H]2Cn1cc(-c2cccc(O)c2)nn1 (stereo partly drawn) [CBK288738]	79.8%
NS(=O)(=O)c1ccc(NCc2cc(Cl)ccc2OCc2ccc(F)cc2)cc1 [CBK268196]	87.2%
CSc1cc(-c2ccc(F)cc2)n[nH]1 [CBK028809]	123%
COc1ccc(C(C)C)cc1-c1cncc(N2CCN(Cc3ccccn3)CC2)n1 [CBK065792]	88.6%
O=C(Nc1ccc(F)cc1)c1ccccc1NS(=O)(=O)c1ccc(C(F)(F)F)cc1[N+](=O)[O-] [CBK045439]	108%
COc1cccc(CN2CC[C@@H]3[C@H](C2)[C@@H](c2ccc(F)cc2)CN3C(=O)c2ccccc2)c1 [CBK286292]	107%
COCCn1c(-c2ccc(CN3CCCC3)cc2)cc2onc(C)c2c1=O [CBK050385C]	104%
CNC(=O)CN(C)Cc1c(C(=O)N2CCOCC2)nc2c(C)cccn12 [CBK307128]	114%
